Patent US8883752B2, “5′ and 2′ BIS-substituted nucleosides and oligomeric compounds prepared therefrom” (Isis Pharmaceuticals, Inc., priority 2008, dated 2014)
Oligonucleotides are written 5' to 3', each unit as a sugar letter and its base; * is a phosphorothioate linkage, no mark a phosphodiester; rarer units and linkages stand in square brackets, end groups in braces. Plain capitals give the bases only. [DMAEAc-N] = 2'-O-dimethylaminoethyl acetamide sugar (N: the base); [5'R-Me-N] = (R)-5'-methyl-2'-deoxyribonucleoside (N: the base); {Py} = methylenephosphonate group, PO(OH)2CH2-; e = 2'-O-(2-methoxyethyl) (MOE); [5mC] = 5-methylcytosine; d = 2'-deoxy (DNA); m = 2'-O-methyl; {P} = phosphate; f = 2'-fluoro

Columns and labels:
[1] = Modified ssRNA 5′-phosphate serum stability assay; format: in vitro ADME; conditions: 10 μM in 95% fresh mouse serum, 37° C., 0-24 h, LC/MS
From the text: A serum stability assay is useful for evaluating the stability of oligomeric compounds in the presences of nucleases and other enzymes found in serum. For example, the stability of a 5′-terminal phosphate group of an oligomeric compound can be evaluated by assessing the ability of the 5′-terminal phosphate group to remain attached to the oligomeric compound in the presence of serum. Accordingly, a serum stability assay was employed to evaluate the stability of modified ssRNAs having a 5′-terminal phosphate group.
Various modified ssRNAs, shown below, having a 5′-terminal phosphate group (10 μM) were dissolved in 95% of fresh mouse serum and incubated at 37° C. Aliquots of serum (100 μL) were removed after 0, 1, 3, 6 or 24 hours of incubation times. The serum samples were immediately quenched and snap frozen. The samples were extracted by the strong anion exchange (SAX) and octadecylsilyl (C-18) columns. For each incubation time, the amount of full length modified ssRNA having a 5′-terminal phosphate group was determined by LC/MS, and the half-life of the full length modified ssRNA having a 5′ terminal phosphate group was calculated. The results are expressed as half-time (T1/2) in the table below.

PTEN mRNA = PTEN mRNA levels in liver of Balb/c mice after single i.p. injection (Example 65); format: in vivo, mouse; conditions: 48 h; for Inhibition of PTEN in vivo (in words): 75 mg/kg; for % inhibition of PTEN mRNA expression: liver, single i.p. 75 mg/kg, normalized to saline-injected control
Experimental: In accordance with the present disclosure, oligomeric compounds were synthesized and tested for their ability to reduce PTEN expression in vivo at dose of 75 mg/kg. Six week old male Balb/c mice (Jackson Laboratory, Bar Harbor, Me.) were administered a single intraperitoneal (i.p) injection at 75 mg/kg of ISIS 467074 having a 5′-phosphate group and […] having a 5′-methylenephosphonate group, (PO(OH)2CH2—). A 5-10-5 gapped oligomer, ISIS 116847 having 2′-O-MOE modified nucleosides in wings with a 5′-phosphorothioate group was included for comparison.
Each dose group consisted of four animals. The mice were sacrificed 48 hours following the final administration to determine the PTEN mRNA levels in liver using real-time PCR and RIBOGREEN® RNA quantification reagent (Molecular Probes, Inc. Eugene, Oreg.) according to standard protocols. PTEN mRNA levels were determined relative to total RNA (using Ribogreen), prior to normalization to saline-treated control. Results are listed below as the average % inhibition of PTEN mRNA expression for each treatment group, normalized to saline-injected control.

[2] = In vivo stability: tissue level of intact compound (Example 66); design: species or system mouse; conditions: Balb/c mice
Experimental: […] were homogenized in a homogenation buffer (20 mM Tris, pH 8, 20 mM EDTA and 0.1 M NaCl in 0.5% NP-40) at time points 0, 5, 10, 20, 30, 40 and 60 minutes (Exception: 06/408877 at time points 0, 15, 30, 60, 120 and 240 mins, 06/409044, at time points 0, 0.5, 1, 2, 4, 8, and 18 hours). An internal standard (18/355868, a 27-mer, 2′-O-methoxyethyl-modified phosphorothioate oligonucleotide, or 19/116847, a 5-10-5 gapmer, 2′-O-methoxyethyl-modified phosphorothioate oligonucleotide) with concentration at 20 μg/g was added prior to extraction. Tissue samples were extracted with 70 μL of NH4OH and 240 μL of phenol/chloroform/isoamyl alcohol (25:24:1). The supernatant was removed after centrifugation at 14000 rpm for […]. The remaining extractant was vortexed with an additional 500 μL of water and the aqueous layer was removed and combined with the supernatant after centrifugation at 14000 rpm for 2 minutes.
Triethylammonium acetate solution at 1M (500 μL) was added to the supernatant. The aqueous layer of the mixture was loaded onto the pre-conditioned Biotage™ Phenyl Solid Phase Extraction Plate (SPE plate) after centrifugation at 9000 rpm for 20 minutes. The SPE plate was washed several times with water. The sample was then eluted with 1.5 mL of 1% TEA in 90% MeOH and filtered through the Protein Precipitation Plate (Phenomenex™). The elutent was evaporated to dryness and diluted to 200 μL with 50% quenching buffer (8 M urea, 50 mM EDTA) and water before sample injection.
An Agilent 1100 Series LC/MSD system was connected in-line to a mass spectrometry. Mass spectrometer was operated in the electrospray negative ionization mode. The nebulizer nitrogen gas was set at […] and the drying nitrogen gas was set at 12 L/min. The drying temperature was 325° C. Samples (25 μL/well) were introduced via an auto sampler and reversed-phase chromatography was carried out with an)(Bridge OST C18 2.5 μm 2.1 mm×50 mm HPLC column using a flow rate of 300 μL/min at 55° C. The ion pair buffers consisted of A: 5 mM tributylammonium acetate (TBAA) in 20% acetonitrile and B: […] TBAA in 90% acetonitrile and the loading buffer was 25 mM TBAA in 25% Acetonitrile. Separation was performed on a 30% to 70% B in 9 min and then 80% B in 11 min gradient.
Quantitative analysis of oligonucleotide and internal standard by extracted ion chromatograms of the most abundant ions was performed using MSD ChemStation software.
The in vivo stability of the three oligomeric compounds in Example 65 was evaluated. The tissue samples were obtained from the animals in which PTEN was assessed. Tissue samples were collected and prepared using the same technique described in Example 64. Quantitative analysis of the oligonucleotides standard were performed by extracted ion chromatograms in the most abundant charge state (−4) using Chemstation software. The tissue level (μg/g) of intact compound of ISIS 116847, 467074 and 467076 was measured and are provided below.

Row | Substance | T1/2 (h) of full length modified ssRNA having a 5′-terminal phosphate group [1] [h] | Inhibition of PTEN in vivo (in words) (PTEN mRNA) | % inhibition of PTEN mRNA expression (PTEN mRNA) [%] | Level of intact compound in tissue (in words) ([2]; 75 mg/kg, 48 h) | Tissue Level of intact compound ([2]; 75 mg/kg i.p., 48 h time point, LC-MS) [µg/g] | Compound lacking the 5′-phosphate in tissue ([2]; 75 mg/kg, 48 h)
1 | ISIS 422391: modified ssRNA, SEQ ID NO 06: P-TdUfGfUfCfUfCfUfGfGfUfCfCfUfUfAfCfUfUfAeAe; d = 2′-O-DMAEAc (antisense {P}-[DMAEAc-T]fUfGfUfCfUfCfUfGfGfUfCfCfU*fU*fA*fC*fU*fU*eA*eA; single-stranded RNA for RNAi) | 6.5 | – | – | – | – | –
2 | ISIS 467076: 5′-methylenephosphonate ssRNA, SEQ ID NO 05: Py-meUmUfGmUfCmUfCmUfGmGfUmCfCmUfUmAfCmUfUmAeAe (antisense {Py}-mT*fU*mGfU*mCfU*mCfU*mGfG*mUfC*mCfU*mU*fA*mC*fU*mU*eA*eA; further chemistry not fully specified) | – | smaller inhibition of PTEN | 16 | present at a lower concentration | – | –
3 | ISIS 116847: 5-10-5 gapped oligomer with 2′-O-MOE wings, included for comparison: meCeTeGemeCeTeAGmeCmeCTmeCTGGATeTeTeGeAe (e[5mC]*eT*eG*e[5mC]*eT*dA*dG*d[5mC]*d[5mC]*dT*d[5mC]*dT*dG*dG*dA*eT*eT*eT*eG*eA) [reference compound] | – | potent inhibitor of PTEN | 76 | present at high levels | 131.1 | –
4 | ISIS 432356: modified ssRNA, SEQ ID NO 06: P-TRUfGfUfCfUfCfUfGfGfUfCfCfUfUfAfCfUfUfAeAe; R = (R)-5′-methyl-2′-deoxyribonucleoside (antisense {P}-[5'R-Me-T]fUfGfUfCfUfCfUfGfGfUfCfCfU*fU*fA*fC*fU*fU*eA*eA; single-stranded RNA for RNAi) | 8.7 | – | – | – | – | –
5 | ISIS 398701: modified ssRNA, SEQ ID NO 09: P-USfUfGfUfCfUfCfUfGfGfUfCfCfUfUfAfCfUfUf (antisense UUGUCUCUGGUCCUUACUU; 5'-phosphate, 2'-fluoro, phosphorothioate, chemistry not fully specified) | 18.2 | – | – | – | – | –
6 | ISIS 404320: modified ssRNA targeting PTEN, SEQ ID NO 05: P-UfUfGfUfCfUfCfUfGfGfUfCfCfUfUfAfCfUfUfAeAe (antisense {P}-fUfUfGfUfCfUfCfUfGfGfUfCfCfU*fU*fA*fC*fU*fU*eA*eA; single-stranded RNA for RNAi) | 4 | – | – | – | – | –
7 | ISIS 467074: modified ssRNA, SEQ ID NO 06: P-TScUfGmUfCmUfCmUfGmGfUmCfCmUfUmAfCmUfUmAeAe (antisense TUGUCUCUGGUCCUUACUUAA; 5'-phosphate, modified sugars, 2'-F/2'-OMe, MOE, chemistry not fully specified) | – | lowest amount of PTEN reduction | 11 | not detected | – | lacking the 5′-phosphate was detected
